Measurements as given in PubChem BioAssay AID1963865 (Molecular Pharmacology Branch, DTP, NCI, 2024).

Tested on: KRAS PDC multicell spheroid viability
Test: Anticancer human tumor 825966-067-R-J1-PDC patient-derived colon carcinoma cell line growth inhibition [KRAS2]
Conditions: for IC50: curve of first compound; for viability, T/C: stronger effect = lower value
Outline: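 KRAS-mutant tumor cells were grown as spheroids with HUVEC endothelial cells and human MSCs as stroma. Targeted agents were tested alone and with KRAS pathway inhibitors. Doses started at or near clinical Cmax, or 10 microM, descending half-log.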

[1] = second compound 0.1 µM, first compound 0.000316 µM
[2] = second compound 0.1 µM, first compound 0.001 µM
[3] = second compound 0.1 µM, first compound 0.00316 µM
[4] = second compound 0.1 µM, first compound 0.01 µM
[5] = second compound 0.1 µM, first compound 0.0316 µM
[6] = second compound 0.316 µM, first compound 0.000316 µM
[7] = second compound 0.316 µM, first compound 0.001 µM
[8] = second compound 0.316 µM, first compound 0.00316 µM
[9] = second compound 0.316 µM, first compound 0.01 µM
[10] = second compound 0.316 µM, first compound 0.0316 µM
[11] = second compound 1 µM, first compound 0.000316 µM
[12] = second compound 1 µM, first compound 0.001 µM
[13] = second compound 1 µM, first compound 0.00316 µM
[14] = second compound 1 µM, first compound 0.01 µM
[15] = second compound 1 µM, first compound 0.0316 µM
[16] = second compound 3.16 µM, first compound 0.000316 µM
[17] = second compound 3.16 µM, first compound 0.001 µM
[18] = second compound 3.16 µM, first compound 0.00316 µM
[19] = second compound 3.16 µM, first compound 0.01 µM
[20] = second compound 3.16 µM, first compound 0.0316 µM
[21] = second compound 10 µM, first compound 0.000316 µM
[22] = second compound 10 µM, first compound 0.001 µM
[23] = second compound 10 µM, first compound 0.00316 µM
[24] = second compound 10 µM, first compound 0.01 µM
[25] = second compound 10 µM, first compound 0.0316 µM
[26] = second compound 0.1 µM, first compound 0.1 µM
[27] = second compound 0.316 µM, first compound 0.1 µM
[28] = second compound 1 µM, first compound 0.1 µM
[29] = second compound 3.16 µM, first compound 0.1 µM
[30] = second compound 10 µM, first compound 0.1 µM
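Also: spheroids exposed to compounds for 7 days.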
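For viability, T/C in this document: 100% = DMSO vehicle control viability.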

Question: Which results are given for `CC(=O)Nc1cccc(-n2c(=O)n(C3CC3)c(=O)c3c(Nc4ccc(I)cc4F)n(C)c(=O)c(C)c32)c1` + CC1OCC2(CCN(c3cnc(Sc4ccnc(N)c4Cl)c(N)n3)CC2)C1N?
Answer: IC50 (second compound 0.1 µM): > 31.6 nM; IC50 (second compound 0.316 µM): > 31.6 nM; IC50 (second compound 1 µM): 4.52 nM; IC50 (second compound 3.16 µM): 0.827 nM; IC50 (second compound 10 µM): 0.12 nM; viability, T/C (second compound 0.1 µM, first compound 0.0001 µM): 93.2%; viability, T/C [1]: 98.9%; viability, T/C [2]: 125%; viability, T/C [3]: 103%; viability, T/C [4]: 93.5%; viability, T/C [5]: 56.5%; viability, T/C (second compound 0.316 µM, first compound 0.0001 µM): 96.3%; viability, T/C [6]: 91.8%; viability, T/C [7]: 110%; viability, T/C [8]: 116%; viability, T/C [9]: 64.8%; viability, T/C [10]: 49.6%; viability, T/C (second compound 1 µM, first compound 0.0001 µM): 80.8%; viability, T/C [11]: 128%; viability, T/C [12]: 105%; viability, T/C [13]: 61.2%; viability, T/C [14]: 27.2%; viability, T/C [15]: 21.5%; viability, T/C (second compound 3.16 µM, first compound 0.0001 µM): 97.1%; viability, T/C [16]: 108%; viability, T/C [17]: 39.6%; viability, T/C [18]: 28.2%; viability, T/C [19]: 18.4%; viability, T/C [20]: 15.8%; viability, T/C (second compound 10 µM, first compound 0.0001 µM): 57.4%; viability, T/C [21]: 9.62%; viability, T/C [22]: 7.27%; viability, T/C [23]: 6.92%; viability, T/C [24]: 5.11%; viability, T/C [25]: 14.4%

Question: How did the IC50 (second compound 0.1 µM) turn out when `CC(C)n1nc(-c2ccc3oc(N)nc3c2)c2c(N)ncnc21` + CC1OCC2(CCN(c3cnc(Sc4ccnc(N)c4Cl)c(N)n3)CC2)C1N was run?
Answer: > 100 nM

Question: What about the IC50 (second compound 0.316 µM) of the same compound?
Answer: > 100 nM

Question: What about the IC50 (second compound 1 µM) of the same compound?
Answer: > 100 nM

Question: What about the IC50 (second compound 3.16 µM) of the same compound?
Answer: > 100 nM

Question: What about the IC50 (second compound 10 µM) of the same compound?
Answer: < 0.316 nM

Question: What about the viability, T/C [1] of the same compound?
Answer: 89.9%

Question: What about the viability, T/C [2] of the same compound?
Answer: 93.2%

Question: And the viability, T/C [3]?
Answer: 133%

Question: And the viability, T/C [4]?
Answer: 162%

Question: And the viability, T/C [5]?
Answer: 132%

Question: What about the viability, T/C [26] of the same compound?
Answer: 138%

Question: What about the viability, T/C [6] of the same compound?
Answer: 101%

Question: And the viability, T/C [7]?
Answer: 115%

Question: And the viability, T/C [8]?
Answer: 133%

Question: What about the viability, T/C [9] of the same compound?
Answer: 166%

Question: And the viability, T/C [10]?
Answer: 132%

Question: And the viability, T/C [27]?
Answer: 109%

Question: What about the viability, T/C [11] of the same compound?
Answer: 115%

Question: What about the viability, T/C [12] of the same compound?
Answer: 111%

Question: And the viability, T/C [13]?
Answer: 162%

Question: What about the viability, T/C [14] of the same compound?
Answer: 170%

Question: What about the viability, T/C [15] of the same compound?
Answer: 140%

Question: What about the viability, T/C [28] of the same compound?
Answer: 84.8%

Question: What about the viability, T/C [16] of the same compound?
Answer: 125%

Question: What about the viability, T/C [17] of the same compound?
Answer: 129%

Question: And the viability, T/C [18]?
Answer: 140%

Question: And the viability, T/C [19]?
Answer: 123%

Question: What about the viability, T/C [20] of the same compound?
Answer: 127%

Question: And the viability, T/C [29]?
Answer: 81.2%

Question: And the viability, T/C [21]?
Answer: 30.2%

Question: And the viability, T/C [22]?
Answer: 62.6%

Question: And the viability, T/C [23]?
Answer: 32.7%

Question: What about the viability, T/C [24] of the same compound?
Answer: 30.8%

Question: What about the viability, T/C [25] of the same compound?
Answer: 61.5%

Question: What about the viability, T/C [30] of the same compound?
Answer: 24.8%

Question: What does the source list for `COC(=O)c1ccc2c(C(=Nc3ccc(N(C)C(=O)CN4CCN(C)CC4)cc3)c3ccccc3)c(O)[nH]c2c1` + CC1OCC2(CCN(c3cnc(Sc4ccnc(N)c4Cl)c(N)n3)CC2)C1N?
Answer: IC50 (second compound 0.1 µM): 739 nM; IC50 (second compound 0.316 µM): 1610 nM; IC50 (second compound 1 µM): 611 nM; IC50 (second compound 3.16 µM): 570 nM; IC50 (second compound 10 µM): < 31.6 nM; viability, T/C [5]: 100%; viability, T/C [26]: 77.4%; viability, T/C (second compound 0.1 µM, first compound 0.316 µM): 83.1%; viability, T/C (second compound 0.1 µM, first compound 1 µM): 38.8%; viability, T/C (second compound 0.1 µM, first compound 3.16 µM): 0.34%; viability, T/C (second compound 0.1 µM, first compound 10 µM): 0.23%; viability, T/C [10]: 83.5%; viability, T/C [27]: 85.1%; viability, T/C (second compound 0.316 µM, first compound 0.316 µM): 84.3%; viability, T/C (second compound 0.316 µM, first compound 1 µM): 88.5%; viability, T/C (second compound 0.316 µM, first compound 3.16 µM): 0.25%; viability, T/C (second compound 0.316 µM, first compound 10 µM): 0.21%; viability, T/C [15]: 96%; viability, T/C [28]: 83.1%; viability, T/C (second compound 1 µM, first compound 0.316 µM): 92.5%; viability, T/C (second compound 1 µM, first compound 1 µM): 19.6%; viability, T/C (second compound 1 µM, first compound 3.16 µM): 0.22%; viability, T/C (second compound 1 µM, first compound 10 µM): 0.2%; viability, T/C [20]: 89.7%; viability, T/C [29]: 92.2%; viability, T/C (second compound 3.16 µM, first compound 0.316 µM): 86.4%; viability, T/C (second compound 3.16 µM, first compound 1 µM): 15.2%; viability, T/C (second compound 3.16 µM, first compound 3.16 µM): 0.17%; viability, T/C (second compound 3.16 µM, first compound 10 µM): 0.19%; viability, T/C [25]: 24.4%; viability, T/C [30]: 32.6%; viability, T/C (second compound 10 µM, first compound 0.316 µM): 5.99%; viability, T/C (second compound 10 µM, first compound 1 µM): 2.24%; viability, T/C (second compound 10 µM, first compound 3.16 µM): 0.2%; viability, T/C (second compound 10 µM, first compound 10 µM): 0.32%
